Test results from patent US20100092443A1, “NOVEL COMBINATIONS OF NITROGENATED HETEROCYCLIC ANTIBACTERIAL COMPOUNDS WITH OTHER ANTIBACTERIAL COMPOUNDS AND THE USE OF SAME AS DRUGS” (priority 2008, published 2010).
Values after ≈ are worked out from the molar mass of the structure shown. Where two headings read alike, the source gives them in different places.

Legend:
Format in all cases: cell-based
[1] = system: E. coli; test: microbe, parasite or virus in culture; settings: Escherichia coli
Method: (§1) In vitro activity, method of dilutions in liquid medium:
(§2) A series of test 96-well microtiter plates are prepared in which the same quantity of sterile nutritive medium is distributed. […] After 24 h of incubation in a 37° C. oven, growth inhibition is evaluated by transillumination, which makes it possible to determine the minimum inhibitory concentrations (MICS) expressed in μg/ml.

[2] = system: K. pneumoniae; test: MIC, dilutions in liquid medium, alone and combined with NXL105
Method: as §1, §2

[3] = system: E. cloacae; test: as above; settings: Enterobacter cloacae
Method: as §1, §2

[4] = system: Pseudomonas aeruginosa; test: as above; settings: Pseudomonas aeruginosa
Method: as §1
A series of test 96-well microtiter plates are prepared in which the same quantity of sterile nutritive medium is distributed. Increasing quantities of the compound to be studied, namely the antibacterial compound alone and the inventive combination with the compound of formula (I) of example 1, are distributed in each plate in the respective proportions 2:1 and 4:1, and then each plate is inoculated with a bacterial strain of Pseudomonas aeruginosa. After 24 h of incubation in a 37° C. oven, growth inhibition is evaluated by transillumination, which makes it possible to determine the minimum inhibitory concentrations (MICS) expressed in μg/ml.

[5] = system: K. oxytoca; test: as above; settings: Klebsiella oxytoca, read-out: MIC
[6] = system: C. freundii; test: as above; settings: Citrobacter freundii

C[C@@H](O)[C@H]1C(=O)N2C(C(=O)O)=C(S[C@@H]3CN[C@H](C(=O)N(C)C)C3)[C@H](C)[C@H]12 [Meropenem]
MIC ([1]; 24 h, E. coli 2138, KPC-2 + TEM-1): 8 mg/L | MIC ([1]; 24 h, E. coli (no alias), CTX-M-15 + TEM-1 + OXA-1): ≤ 0.03 mg/L | MIC ([1]; 24 h, E. coli IND, VEB-1 + CMY-2): 0.06 mg/L | MIC ([1]; 24 h, E. coli TN06, CTX-M-2 + TEM-1): 0.06 mg/L | MIC ([1]; 24 h, E. coli TN13, CTX-M-14 + CMY-2 + TEM-1): 0.25 mg/L | MIC ([1]; 24 h, E. coli Tunisie clone E4, CTX-M-16 + TEM-1): 0.125 mg/L | MIC ([1]; E. coli (no alias), Cephalosporinase, read-out: MIC): 0.06 mg/L (≈ 0.156 µM) | MIC ([1]; E. coli (no alias), SHV-4): ≤ 0.03 mg/L | MIC ([1]; E. coli (no alias), TEM-3): ≤ 0.03 mg/L | MIC ([2]; K. pneumoniae 236, SHV-5 + TEM-10): 0.125 mg/L | MIC ([2]; K. pneumoniae 444, SHV-5 + TEM-2 + PER): 0.125 mg/L | MIC ([2]; K. pneumoniae 1734, FOX-3 + TEM-1): 0.125 mg/L | MIC ([2]; K. pneumoniae 9701, CMY-4 + TEM-1): 0.125 mg/L | MIC ([2]; K. pneumoniae Tunisie clone K1, CTX-M-16 + OXA-1): 0.125 mg/L | MIC ([2]; K. pneumoniae Tunisie clone K4, CTX-M-15 + TEM-1 + OXA-1): 0.125 mg/L | MIC ([2]; Klebsiella pneumoniae): 0.125 mg/L | MIC ([2]; Klebsiella pneumoniae, 24 h, K. pneumoniae 60, SHV-2 + TEM-2 + PER, read-out: MIC): 0.06 mg/L | MIC ([2]; Klebsiella pneumoniae, 24 h, K. pneumoniae 157, SHV-5 + TEM-26, read-out: MIC): ≤ 0.03 mg/L | MIC ([2]; Klebsiella pneumoniae, 24 h, K. pneumoniae 181, SHV-5 + TEM-10, read-out: MIC): 4 mg/L | MIC ([2]; Klebsiella pneumoniae, 24 h, K. pneumoniae 238, SHV-2 + TEM-12 + CTX-M-2, read-out: MIC): ≤ 0.03 mg/L | MIC ([2]; Klebsiella pneumoniae, 24 h, K. pneumoniae 253, SHV-2 + TEM-12 + CTX-M-2, read-out: MIC): 0.06 mg/L | MIC ([2]; Klebsiella pneumoniae, 24 h, K. pneumoniae 427, SHV-1 + TEM-1B + CTX-M-3, read-out: MIC): 0.06 mg/L | MIC ([2]; Klebsiella pneumoniae, 24 h, K. pneumoniae 441, SHV-1 + TEM-2 + PER, read-out: MIC): 0.06 mg/L | MIC ([2]; Klebsiella pneumoniae, 24 h, K. pneumoniae 449, SHV-1 + TEM-2 + PER, read-out: MIC): ≤ 0.03 mg/L | MIC ([2]; Klebsiella pneumoniae, 24 h, K. pneumoniae 465, TEM-1B + CTX-M-2, read-out: MIC): 0.25 mg/L | MIC ([2]; Klebsiella pneumoniae, 24 h, K. pneumoniae KOL, MOX-2 + SHV-5 + TEM-1, read-out: MIC): 0.06 mg/L | MIC ([2]; Klebsiella pneumoniae, 24 h, K. pneumoniae Patient 1BHR, VIM-4 + CTX-M-15 = CMY-4 + TEM-1, read-out: MIC): 16 mg/L | MIC ([2]; Klebsiella pneumoniae, 24 h, K. pneumoniae Patient F, VIM-1 + SHV-5, read-out: MIC): > 32 mg/L | MIC ([2]; Klebsiella pneumoniae, 24 h, K. pneumoniae SLK54, ACC-1 + TEM-1, read-out: MIC): 0.06 mg/L | MIC ([2]; Klebsiella pneumoniae, 24 h, K. pneumoniae TN58467, DHA-1 + SHV-2a + TEM-1, read-out: MIC): 0.25 mg/L | MIC ([2]; Klebsiella pneumoniae, ATCC700603, K. pneumoniae ATCC 700603, SHV-18, read-out: MIC): 0.06 mg/L | MIC ([2]; Klebsiella pneumoniae, K. pneumoniae 26, SHV-5, read-out: MIC): ≤ 0.03 mg/L | MIC ([2]; Klebsiella pneumoniae, K. pneumoniae CL5761, KPC-3, read-out: MIC): > 32 mg/L | MIC ([2]; Klebsiella pneumoniae, K. pneumoniae CL5762, KPC-3, read-out: MIC): > 32 mg/L | MIC ([2]; Klebsiella pneumoniae, K. pneumoniae CL5763, KPC-3, read-out: MIC): > 32 mg/L | MIC ([2]; Klebsiella pneumoniae, K. pneumoniae VA8, KPC-3, read-out: MIC): ≤ 0.03 mg/L | MIC ([2]; Klebsiella pneumoniae, K. pneumoniae VAKP, KPC-2, read-out: MIC): 32 mg/L | MIC ([2]; Klebsiella pneumoniae, K. pneumoniae YC, KPC-2, read-out: MIC): 32 mg/L | MIC [3]: 0.125 mg/L | MIC ([3]; 24 h, E. cloacae 7506, KPC-2 + TEM-1 + KLUC-2, read-out: MIC): 16 mg/L | MIC ([3]; E. cloacae (no alias), AmpC, read-out: MIC): 0.5 mg/L | MIC ([4]; ATCC27853, P. aeruginosa ATCC 27853): 1 mg/L | MIC ([4]; P. aeruginosa 391HG2): > 32 mg/L | MIC ([4]; P. aeruginosa 391HG21): > 32 mg/L | MIC ([4]; P. aeruginosa 391HG38): 32 mg/L | MIC ([4]; P. aeruginosa 391HG39): 0.06 mg/L | MIC ([4]; P. aeruginosa 391HG58): 32 mg/L | MIC ([4]; P. aeruginosa 391HG118): 8 mg/L | MIC ([4]; P. aeruginosa 391HG123): 32 mg/L | MIC ([4]; P. aeruginosa 391HG158): 32 mg/L | MIC ([4]; P. aeruginosa 391HG271): > 32 mg/L | MIC ([4]; P. aeruginosa 391HG329): > 32 mg/L | MIC ([4]; P. aeruginosa 391K767): 2 mg/L | MIC ([4]; P. aeruginosa 391K1455): 4 mg/L | MIC ([4]; P. aeruginosa 391K1523): 2 mg/L | MIC ([4]; P. aeruginosa 391K1525): 2 mg/L | MIC ([4]; P. aeruginosa 391K1536): 2 mg/L | MIC ([4]; P. aeruginosa 391K2376): 2 mg/L | MIC ([4]; P. aeruginosa 391K2379): 4 mg/L | MIC ([4]; P. aeruginosa 391K2415): 2 mg/L | MIC ([4]; P. aeruginosa 391KB9): 4 mg/L | MIC ([4]; P. aeruginosa 391KB14): 8 mg/L | MIC ([4]; P. aeruginosa 391KB21): 8 mg/L | MIC ([4]; P. aeruginosa 391KB33): 4 mg/L | MIC ([4]; P. aeruginosa 391KB38): 8 mg/L | MIC ([4]; P. aeruginosa 391KB62): > 32 mg/L | MIC ([4]; P. aeruginosa 391KB68): 1 mg/L | MIC ([4]; P. aeruginosa 391KB90): 16 mg/L | MIC ([4]; P. aeruginosa 391KB91): 16 mg/L | MIC ([4]; P. aeruginosa 391KB99): 16 mg/L | MIC ([4]; P. aeruginosa 391KB103): 8 mg/L | MIC ([4]; P. aeruginosa 391KB105): 4 mg/L | MIC ([4]; P. aeruginosa 391KB106): 4 mg/L | MIC ([4]; P. aeruginosa 391KB107): 32 mg/L | MIC ([4]; P. aeruginosa 391KB114): 16 mg/L | MIC ([4]; P. aeruginosa 391KB127): 2 mg/L | MIC ([4]; P. aeruginosa 391KB135): > 32 mg/L | MIC ([4]; P. aeruginosa 391KB136): > 32 mg/L | MIC ([4]; P. aeruginosa 391KB137): > 32 mg/L | MIC ([4]; P. aeruginosa 391KB138): > 32 mg/L | MIC ([4]; P. aeruginosa 391KB139): > 32 mg/L | MIC ([4]; P. aeruginosa 391KB140): 16 mg/L | MIC ([4]; P. aeruginosa 391KB141): > 32 mg/L | MIC ([4]; P. aeruginosa 391KB142): > 32 mg/L | MIC ([4]; P. aeruginosa 391KB143): > 32 mg/L | MIC ([4]; P. aeruginosa 391KB144): > 32 mg/L | MIC ([4]; P. aeruginosa 391QBR2): > 32 mg/L | MIC ([4]; P. aeruginosa 391QBR3): 32 mg/L | MIC ([4]; P. aeruginosa 391QBR4): 16 mg/L | MIC ([4]; P. aeruginosa 391QBR5): 32 mg/L | MIC ([4]; P. aeruginosa 391QBR7): 32 mg/L | MIC ([4]; P. aeruginosa 391QBR8): 16 mg/L | MIC ([4]; P. aeruginosa 391QBR9): 16 mg/L | MIC ([4]; P. aeruginosa 391QBR10): 4 mg/L | MIC ([4]; P. aeruginosa C3719): > 32 mg/L | MIC ([4]; P. aeruginosa PA2192): 8 mg/L | MIC ([5]; K. oxytoca 1431, TEM-129): 0.06 mg/L | MIC ([5]; K. oxytoca 16944, OXY-2, TEM-1): 0.06 mg/L | MIC [6]: 0.125 mg/L | MIC ([6]; 24 h, C. freundii (no alias), AmpC + TEM-1, read-out: MIC): 0.06 mg/L | MIC ([6]; C. freundii (no alias, table row r121), AmpC, read-out: MIC): 0.25 mg/L | MIC ([6]; C. freundii (no alias, table row r122), AmpC, read-out: MIC): 0.06 mg/L | MIC ([6]; C. freundii (no alias, table row r125), AmpC, read-out: MIC): 0.06 mg/L
